Experimental data: patent US5294617A, “Angiotensin II receptor blocking 2,3,6 substituted quinazolinones” (American Cyanamid Company, priority 1993, dated 1994)

Molecular target: T1, Angiotensin II Receptor (Bos taurus, UniProt P25104)
T1 construct: The brownish tissue forming the adrenal cortex is scraped off and finely minced with scissors before homogenization; tissue local slaughter house (Maxwell--Cohen); host or cells: beef adrenal cortex, microsomal membranes (100,000×g pellet)
T1 sequence (P25104 1-359): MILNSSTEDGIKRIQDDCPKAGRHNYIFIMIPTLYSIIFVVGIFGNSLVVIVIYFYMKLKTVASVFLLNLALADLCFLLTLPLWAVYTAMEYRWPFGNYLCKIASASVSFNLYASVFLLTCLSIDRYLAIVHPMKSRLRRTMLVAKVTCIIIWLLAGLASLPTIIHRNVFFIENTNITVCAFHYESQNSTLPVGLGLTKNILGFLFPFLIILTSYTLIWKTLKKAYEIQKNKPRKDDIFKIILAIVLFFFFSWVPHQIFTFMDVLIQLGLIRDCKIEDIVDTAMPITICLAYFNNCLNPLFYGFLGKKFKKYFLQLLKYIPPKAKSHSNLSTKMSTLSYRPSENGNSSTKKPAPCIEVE
Assay: Receptor Binding Assay: binding of [125I](Sar1,Ile8)AngII to beef adrenal cortex membranes
Source text: [^125 I](Sar^1,Ile^8)AngII, S.A. 2200 Ci/mmole, is purchased from Dupont (NEN®, Boston, Mass.). All unlabeled AngII analogs, Dimethylsulfoxide (DMSO), nucleotides, bovine serum albumin (BSA) are purchased from Sigma Chemical Co., St. Louis, Mo. U.S.A.
Approximately sixteen (16) to twenty (20) beef adrenal glands are processed as follows: fresh adrenal glands received on crushed ice are cleaned of fatty tissues and the tough membranes encapsulating the glands are removed and discarded. The brownish tissue forming the adrenal cortex is scraped off and finely minced with scissors before homogenization. Care is taken to avoid contamination with medullary tissue during dissection. The scraped cortices are suspended in twenty volumes of an ice-cold buffer medium consisting of 10 mM Tris.HCl (pH 7.4 at 22° C.) and containing 1.0 mM EDTA and 0.2M sucrose. Unless otherwise indicated, all subsequent operations are done at 4° C. […] The homogenate is centrifuged first at low speed (3,000×g) for 10 min. […] This P2 pellet is discarded and the liquid phase is carefully decanted off in clean centrifuge tubes and recentrifuged at high speed (100,000×g) for 60 min. The translucent final pellet is harvested and combined in a small volume (20-50.0 ml) of 50.0 mM Tris.HCl buffer, pH 7.2. […] The pelleted membrane is reconstituted in 50.0 mM Tris.HCl buffer containing 0.1 mM of phenylmethylsulfonyl fluoride (PMSF) to give approximately a protein concentration of 2.5 mg per ml of tissue suspension. The membrane preparation is finally aliquoted in 1.0 ml volumes and stored at -70° C. until use in the binding assays.
In competition studies, experimental compounds are diluted in dimethylsulfoxide (DMSO) and added in 20 ul to wells before the introduction of tissue membranes. […] Assays are performed in triplicate. The wells are left undisturbed for 60 min. at room temperature. […] The filters are removed from the filter grid and counted in a Parkard® Cobra Gamma Counter for 1 min. […] The binding data are analyzed by the non-linear interactive "LUNDON-1" program (LUNDON SOFTWARE Inc., Cleveland, Ohio U.S.A.).

IC50	SMILES
0.043 µM	CCCCc1nc2ccc([C@@H]3C[C@H](CO)ON3C)cc2c(=O)n1Cc1ccc(-c2ccccc2-c2nn[nH]n2)cc1 (relative stereo) [Example 15, CIS-2-butyl-6-5-(hydroxymethyl)-2-methyl-3-isoxazolidinyl]-3-[[2'-(1H-tetrazol-5[1,1'-biphenyl]-4-yl]methyl]-4(3H)-quinazolinone]
0.061 µM	CCCCc1nc2ccc([C@H]3C[C@H](CO)ON3C)cc2c(=O)n1Cc1ccc(-c2ccccc2-c2nnn[nH]2)cc1 (relative stereo) [Example 16, TRANS-2-butyl-6-[5-(hydroxymethyl)-2-methyl-3-isoxazolidinyl]-3-[[2'-(1H-tetrazol-5-yl)[1,1'-biphenyl]-4-yl]methyl]-4(3H)-quinazolinone]
